Assay results as given in patent US20050009929A1, “Inhibition of the asexual reproduction of fungi” (priority 2001, published 2005).

Tested on: Aspergillus niger
Experiment: Effect of farnesol on the sporulation of Aspergillus niger on malt extract agar
Format: cell-based
Conditions: 5 days at 25° C.; for Sporulation [%]: evaluated by appearance
Protocol: Quantities of 100 μl of a cell suspension of Aspergillus niger (1.5·10^7 cells/ml) were plated out onto malt agar extract (Merck) to which farnesol had been added in various quantities of 0; 25; 62.5; 125; 250 and 500 μM.

CC(C)=CCCC(C)=CCCC(C)=CCO [farnesol]
Sporulation [%] (farnesol 25 μM in agar): 90% | Sporulation [%] (farnesol 62.5 μM in agar): 75% | Sporulation [%] (farnesol 125 μM in agar): 50% | Sporulation [%] (farnesol 250 μM in agar): 10% | inhibition of sporulation (in words) (farnesol 500 μM in agar): completely suppressed | Sporulation [%] (farnesol 500 μM in agar): 0% | inhibition of growth (farnesol 25 to 500 μM in agar): None of the farnesol concentrations used inhibited growth
